Reference: article PMC3705412, “PTP1B Inhibitory and Anti-Inflammatory Effects of Secondary Metabolites Isolated from the Marine-Derived Fungus Penicillium sp. JF-55” (Marine Drugs, 2013)

Tests used:
Format in all cases: cell-based, murine (C57BL/6 mice)
COX-2 = experiment: Western blotting of COX-2 protein expression in LPS-stimulated macrophages; conditions: pre-treatment 12 h, LPS 1 μg/mL 18 h
Method: Figure 3 The effects of penstyrylpyrone (1) (A), anhydrofulvic acid (2) (B), and citromycetin (3) (C) on the protein expression of iNOS and COX-2 in murine peritoneal macrophages stimulated with LPS. Murine peritoneal macrophages were pre-treated for 12 h at the indicated compound concentrations and stimulated for 18 h with LPS (1 μg/mL). Western blotting analysis was performed, and the representative blots of three independent experiments are shown.
(§1) C57BL/6 mice were purchased from Orient Bio Co. (Sungnam, Kyung-Kido, Korea). TG-elicited peritoneal macrophages were harvested four days after intraperitoneal (i.p.) injection of 3 mL of TG [37]. Peritoneal lavage was performed using 8 mL of Hanks’ Balanced Salt Solution containing 10 U/mL heparin. The cells were distributed in Roswell Park Memorial Institute medium (RPMI) supplemented with 10% heat-inactivated FBS, in 6-well tissue culture plates (5 × 10^6 cells/mL).
(§2) Western blotting analysis was performed by lysing the cells in 20 mM Tris-HCl buffer (pH 7.4) containing a protease inhibitor mixture (0.1 mM PMSF, 5 mg/mL aprotinin, 5 mg/mL pepstatin A, and 1 mg/mL chymostatin). The protein concentration was determined using a Lowry protein assay kit (P5626; Sigma Chemical Co., St. Louis, MO, USA). […]

IκB-α = experiment: Western blotting of IκB-α phosphorylation and degradation in LPS-stimulated macrophages; conditions: pre-treatment 12 h, 5 to 40 μM, LPS 1 μg/mL 1 h
Method: Figure 5 The effects of penstyrylpyrone (1) on the protein expression level of IκB-α phosphorylation, degradation of IκB-α (A), NF-κB translocation (B), and NF-κB DNA binding activity (C) in murine peritoneal macrophages. Murine peritoneal macrophages were pre-treated for 12 h at the indicated concentrations of penstyrylpyrone (1), and stimulated for 1 h with LPS (1 μg/mL). Western blotting analysis of IκB-α and p-IκB-α in the cytoplasm and NF-κB in the nucleus (A, B) were performed. A commercially available NF-κB ELISA (Active Motif) was used to test the nuclear extracts and to determine the degree of NF-κB binding (C). […]
Murine peritoneal macrophages were homogenized (1:20, w:v) in PER-Mammalian Protein Extraction buffer (Pierce Biotechnology, Rockford, IL, USA) containing freshly added protease inhibitor cocktail I (EMD Biosciences, San Diego, CA, USA) and 1 mM phenylmethylsulfonyl fluoride (PMSF). […] The protein concentration was determined using the bicinchoninic acid (BCA) protein assay kit.
as §2

HO-1 = experiment: Western blotting of HO-1 protein expression in macrophages
Method: Figure 6 The effects of penstyrylpyrone (1) on the protein expression of HO-1 in murine peritoneal macrophages. Murine peritoneal macrophages were incubated for 12 h with the indicated concentrations of penstyrylpyrone (1). […] Representative blots of three independent experiments are shown. The data represent the mean ± SD of three experiments. * p < 0.05 compared with the control group.
as §1
Western blotting analysis was performed by lysing the cells in 20 mM Tris-HCl buffer (pH 7.4) containing a protease inhibitor mixture (0.1 mM PMSF, 5 mg/mL aprotinin, 5 mg/mL pepstatin A, and 1 mg/mL chymostatin). The protein concentration was determined using a Lowry protein assay kit (P5626; Sigma Chemical Co., St. Louis, MO, USA). An equal amount of protein for each sample was resolved using 12% sodium dodecyl sulfate-polyacrylamide gel electrophoresis (SDS-PAGE) and then electrophoretically transferred onto a Hybond enhanced chemiluminescence (ECL) nitrocellulose membrane (Bio-Rad, Hercules, CA, USA). The membrane was blocked with 5% skimmed milk and sequentially incubated with primary antibody (Santa Cruz Biotechnology, Santa Cruz, CA, USA) and horseradish peroxidase-conjugated secondary antibody followed by ECL detection (Amersham Pharmacia Biotech, Piscataway, NJ, USA).

[1] = tested on: anti-oxidant response element (ARE); experiment: ARE-luciferase activation in macrophages; conditions: 1 h, 5% FBS
Method: Figure 7 The effects of penstyrylpyrone (1) on the nuclear translocation of Nrf2 (A) and anti-oxidant response element (ARE) activation (B) in murine peritoneal macrophages. Murine peritoneal macrophages were treated with 40 μM of penstyrylpyrone (1) for 15, 30, 60, 90 and 120 min. The nuclei were fractionated from the cytosol using PER-Mammalian Protein Extraction buffer. Nrf2 protein was detected using Western blotting analysis and representative blots of three independent experiments are shown. Quiescent cells transiently transfected with ARE-luciferase or control vector were incubated for 1 h with indicated concentrations of latifolin in the presence of 5% FBS. Cell lysates were assayed for luciferase activity and depicted by fold induction by normalizing the transfection efficiency and dividing the values of each experiment relative to the control. * p < 0.05 compared to the control group.

Compound: COc1cc(/C=C/c2ccccc2)oc(=O)c1C [Penstyrylpyrone (1), penstyrylpyrone]
- COX-2 expression (COX-2): decreased
- LPS-induced phosphorylation and degradation of IκB-α (IκB-α): markedly inhibited
- Time at which HO-1 protein expression began to increase (HO-1; 40 μM): 6 h
- Time of maximum level of HO-1 protein expression (HO-1; 40 μM): 18 h
- HO-1 protein expression (HO-1; 5–40 μM for 12 h): concentration-dependent increase
- Concentration giving a considerable increase in HO-1 expression (HO-1; 12 h): above 10 μM
- ARE activation (luciferase) [1]: gradually increased in a dose-dependent manner
